# Results reported in ChEMBL document CHEMBL5370591, “A Potent and Narrow-Spectrum Antibacterial against Clostridioides difficile Infection” (J Med Chem, 2023).
# Active and inactive are the calls of the source. The rule behind the calls is not given here.
# Key:
# THP-1 = test: Cytotoxicity against human THP-1 cells assessed as increase in LDH release incubate for 24 hrs by trypan-blue staining based analysis; assay type: functional, cell-based; conditions: THP-1, 24 h
# [1] = Selectivity ratio of IC50 for human THP-1 cells to MIC for Clostridium difficile ATCC 43255; assay type: toxicity
# Clostridioides difficile [2] = test: Antibacterial activity against Clostridium difficile ATCC 43255 assessed as inhibition of bacterial growth by broth microdilution method; assay type: functional
# Clostridioides difficile [3] = test: Antibacterial activity against Clostridium difficile BAA-1870 assessed as inhibition of bacterial growth by broth microdilution method; assay type: functional
# Clostridioides difficile [4] = test: Antibacterial activity against Clostridium difficile BAA-1803 assessed as inhibition of bacterial growth by broth microdilution method; assay type: functional
# Clostridioides difficile [5] = test: Antibacterial activity against Clostridium difficile NR49310 assessed as inhibition of bacterial growth by broth microdilution method; assay type: functional
# Clostridioides difficile [6] = test: Antibacterial activity against Clostridium difficile NR49294 assessed as inhibition of bacterial growth by broth microdilution method; assay type: functional
# Clostridioides difficile [7] = test: Antibacterial activity against Clostridium difficile NR49305 assessed as inhibition of bacterial growth by broth microdilution method; assay type: functional
# Clostridioides difficile [8] = test: Antibacterial activity against Clostridium difficile NR49318 assessed as inhibition of bacterial growth by broth microdilution method; assay type: functional
# Clostridioides difficile [9] = test: Antibacterial activity against Clostridium difficile NR49292 assessed as inhibition of bacterial growth by broth microdilution method; assay type: functional
# Clostridioides difficile [10] = test: Antibacterial activity against Clostridium difficile NR49302 assessed as inhibition of bacterial growth by broth microdilution method; assay type: functional
# Clostridioides difficile [11] = test: Antibacterial activity against Clostridium difficile 26675 assessed as inhibition of bacterial growth by broth microdilution method; assay type: functional
# Clostridioides difficile [12] = test: Antibacterial activity against Clostridium difficile 24531 assessed as inhibition of bacterial growth by broth microdilution method; assay type: functional
# Staphylococcus aureus [13] = test: Antibacterial activity against Staphylococcus aureus ATCC 29213 assessed as inhibition of bacterial growth by broth microdilution method; assay type: functional
# Staphylococcus aureus [14] = test: Antibacterial activity against Staphylococcus aureus ATCC 27660 assessed as inhibition of bacterial growth by broth microdilution method; assay type: functional
# Staphylococcus aureus [15] = test: Antibacterial activity against Staphylococcus aureus NRS100 assessed as inhibition of bacterial growth by broth microdilution method; assay type: functional
# Staphylococcus aureus [16] = test: Antibacterial activity against Staphylococcus aureus NRS119 assessed as inhibition of bacterial growth by broth microdilution method; assay type: functional
# Staphylococcus aureus [17] = test: Antibacterial activity against Staphylococcus aureus NRS120 assessed as inhibition of bacterial growth by broth microdilution method; assay type: functional
# Staphylococcus aureus [18] = test: Antibacterial activity against vancomycin-resistant Staphylococcus aureus clinical isolate 1 assessed as inhibition of bacterial growth by broth microdilution method; assay type: functional
# Staphylococcus aureus [19] = test: Antibacterial activity against vancomycin-resistant Staphylococcus aureus clinical isolate 2 assessed as inhibition of bacterial growth by broth microdilution method; assay type: functional
# [20] = tested on: Staphylococcus epidermidis; test: Antibacterial activity against Staphylococcus epidermidis ATCC 35547 assessed as inhibition of bacterial growth by broth microdilution method; assay type: functional
# [21] = tested on: Staphylococcus haemolyticus; test: Antibacterial activity against Staphylococcus haemolyticus ATCC 29970 assessed as inhibition of bacterial growth by broth microdilution method; assay type: functional
# Streptococcus oralis = test: Antibacterial activity against Streptococcus oralis ATCC 9811 assessed as inhibition of bacterial growth by broth microdilution method; assay type: functional
# Streptococcus pyogenes = test: Antibacterial activity against Streptococcus pyogenes ATCC 49399 assessed as inhibition of bacterial growth by broth microdilution method; assay type: functional
# Bacillus cereus = test: Antibacterial activity against Bacillus cereus ATCC 13061 assessed as inhibition of bacterial growth by broth microdilution method; assay type: functional
# Bacillus licheniformis = test: Antibacterial activity against Bacillus licheniformis ATCC 12759 assessed as inhibition of bacterial growth by broth microdilution method; assay type: functional
# Enterococcus faecalis [22] = test: Antibacterial activity against Enterococcus faecalis ATCC 29212 assessed as inhibition of bacterial growth by broth microdilution method; assay type: functional
# Enterococcus faecalis [23] = test: Antibacterial activity against vancomycin susceptible Enterococcus faecalis 201 assessed as inhibition of bacterial growth by broth microdilution method; assay type: functional
# Enterococcus faecalis [24] = test: Antibacterial activity against vancomycin resistant Enterococcus faecalis 99 assessed as inhibition of bacterial growth by broth microdilution method; assay type: functional
# Enterococcus faecium [25] = test: Antibacterial activity against vancomycin susceptible Enterococcus faecium119-39A assessed as inhibition of bacterial growth by broth microdilution method; assay type: functional; conditions: 119-39A
# Enterococcus faecium [26] = test: Antibacterial activity against vancomycin resistant Enterococcus faecium 106 assessed as inhibition of bacterial growth by broth microdilution method; assay type: functional
# Enterococcus faecium [27] = test: Antibacterial activity against Enterococcus faecium NCTC 7171 assessed as inhibition of bacterial growth by broth microdilution method; assay type: functional
# Bacteroides fragilis = test: Antibacterial activity against Bacteroides fragilis HM-709 assessed as inhibition of bacterial growth by broth microdilution method; assay type: functional
# Bifidobacterium longum = test: Antibacterial activity against Bifidobacterium longum HM-846 assessed as inhibition of bacterial growth by broth microdilution method; assay type: functional
# Corynebacterium sp. = test: Antibacterial activity against Corynebacterium sp. HM-784 assessed as inhibition of bacterial growth by broth microdilution method; assay type: functional
# Fusobacterium nucleatum = test: Antibacterial activity against Fusobacterium nucleatum HM-992 assessed as inhibition of bacterial growth by broth microdilution method; assay type: functional
# [28] = tested on: Limosilactobacillus reuteri; test: Antibacterial activity against Lactobacillus reuteri HM-102 assessed as inhibition of bacterial growth by broth microdilution method; assay type: functional
# Lactobacillus gasseri = test: Antibacterial activity against Lactobacillus gasseri HM-644 assessed as inhibition of bacterial growth by broth microdilution method; assay type: functional
# Veillonella = test: Antibacterial activity against Veillonella HM-49 assessed as inhibition of bacterial growth by broth microdilution method; assay type: functional
# Eubacterium sp. = test: Antibacterial activity against Eubacterium sp. HM-178 assessed as inhibition of bacterial growth by broth microdilution method; assay type: functional
# Klebsiella pneumoniae = test: Antibacterial activity against Klebsiella pneumoniae ATCC700603 assessed as inhibition of bacterial growth by broth microdilution method; assay type: functional
# Acinetobacter baumannii = test: Antibacterial activity against Acinetobacter baumannii ATCC17961 assessed as inhibition of bacterial growth by broth microdilution method; assay type: functional
# Pseudomonas aeruginosa = test: Antibacterial activity against Pseudomonas aeruginosa ATCC27853 assessed as inhibition of bacterial growth by broth microdilution method; assay type: functional
# Klebsiella aerogenes = test: Antibacterial activity against Klebsiella aerogenes ATCC35029 assessed as inhibition of bacterial growth by broth microdilution method; assay type: functional
# Escherichia coli = test: Antibacterial activity against Escherichia coli ATCC25922 assessed as inhibition of bacterial growth by broth microdilution method; assay type: functional
# Clostridioides difficile [29] = test: Antibacterial activity against Clostridium difficile ATCC 43255 assessed as as time duration of post-antibiotic effect for suppression of bacterial growth at 4 times MIC incubated for 1 hr in broth solution; assay type: functional
# Clostridioides difficile [30] = test: Antibacterial activity against Clostridium difficile ATCC 43255 assessed as damage in cell wall at 8 time MIC incubated for 24 hrs by scanning electron microscopy based analysis; assay type: functional, organism-based
smiles,measurement,setting,value
FC(F)(F)c1ccc(Oc2ccc(-c3noc(-c4ccc5[nH]ccc5c4)n3)cc2)cc1,IC50,THP-1,69 µg/mL
same,selectivity ratio,[1],17
same,MIC,Clostridioides difficile [2],2 µg/mL
same,MIC,Clostridioides difficile [3],4 µg/mL
same,MIC,Clostridioides difficile [4],2 µg/mL
same,MIC,Clostridioides difficile [5],2 µg/mL
same,MIC,Clostridioides difficile [6],1 µg/mL
same,MIC,Clostridioides difficile [7],4 µg/mL
same,MIC,Clostridioides difficile [8],2 µg/mL
same,MIC,Clostridioides difficile [9],2 µg/mL
same,MIC,Clostridioides difficile [10],2 µg/mL
same,MIC,Clostridioides difficile [11],4 µg/mL
same,MIC,Clostridioides difficile [12],4 µg/mL
same,MIC,Staphylococcus aureus [13],4 µg/mL
same,MIC,Staphylococcus aureus [14],4 µg/mL
same,MIC,Staphylococcus aureus [15],2 µg/mL
same,MIC,Staphylococcus aureus [16],2 µg/mL
same,MIC,Staphylococcus aureus [17],2 µg/mL
same,MIC,Staphylococcus aureus [18],2 µg/mL
same,MIC,Staphylococcus aureus [19],2 µg/mL
same,MIC,[20],2 µg/mL
same,MIC,[21],8 µg/mL
same,MIC,Streptococcus oralis,128 µg/mL
same,MIC,Streptococcus pyogenes,64 µg/mL
same,MIC,Bacillus cereus,16 µg/mL
same,MIC,Bacillus licheniformis,8 µg/mL
same,MIC,Enterococcus faecalis [22],8 µg/mL
same,MIC,Enterococcus faecalis [23],4 µg/mL
same,MIC,Enterococcus faecalis [24],4 µg/mL
same,MIC,Enterococcus faecium [25],1 µg/mL
same,MIC,Enterococcus faecium [26],2 µg/mL
same,MIC,Enterococcus faecium [27],2 µg/mL
same,MIC,Bacteroides fragilis,4 µg/mL
same,MIC,Bifidobacterium longum,0.25 µg/mL
same,MIC,Corynebacterium sp.,2 µg/mL
same,MIC,Fusobacterium nucleatum,1 µg/mL
same,MIC,[28],> 128 µg/mL
same,MIC,Lactobacillus gasseri,> 128 µg/mL
same,MIC,Veillonella,> 128 µg/mL
same,MIC,Eubacterium sp.,2 µg/mL
same,MIC,Klebsiella pneumoniae,> 128 µg/mL
same,MIC,Acinetobacter baumannii,> 128 µg/mL
same,MIC,Pseudomonas aeruginosa,> 128 µg/mL
same,MIC,Klebsiella aerogenes,> 128 µg/mL
same,MIC,Escherichia coli,> 128 µg/mL
CN[C@H](CC(C)C)C(=O)N[C@H]1C(=O)N[C@@H](CC(N)=O)C(=O)N[C@H]2C(=O)N[C@H]3C(=O)N[C@H](C(=O)N[C@H](C(=O)O)c4cc(O)cc(O)c4-c4cc3ccc4O)[C@H](O)c3ccc(c(Cl)c3)Oc3cc2cc(c3O[C@@H]2O[C@H](CO)[C@@H](O)[C@H](O)[C@H]2O[C@H]2C[C@](C)(N)[C@H](O)[C@H](C)O2)Oc2ccc(cc2Cl)[C@H]1O [VANCOMYCIN],MIC,Clostridioides difficile [4],2 µg/mL
same,MIC,Clostridioides difficile [6],0.25 µg/mL
same,MIC,Clostridioides difficile [8],0.25 µg/mL
same,MIC,Clostridioides difficile [9],0.25 µg/mL
same,MIC,Staphylococcus aureus [18],64 µg/mL
same,MIC,Bacteroides fragilis,16 µg/mL
same,MIC,Bifidobacterium longum,0.25 µg/mL
same,MIC,Fusobacterium nucleatum,0.25 µg/mL
same,Time,Clostridioides difficile [29],3 h
same,Activity,Clostridioides difficile [30],Active
